Legend:
C57BL/6 mice [1] = assay: DSS chronic colitis (Ex. 7): assessment of colitis course; type: in vivo
Experimental: Chronic colitis and fibrosis were induced in mice by oral administration of 2.5% (w/v) DSS in drinking water, for three cycles (5 day DSS, 7 days of water). Animals were monitored daily for food and fluid intake and were weighed at the beginning of the study and thereafter regularly every three days.
The mice were randomly divided into two groups: i. DSS and ii. DSS+GED. Each group consisted of 25 mice and was compared with 10 control animals, which received only water. GED (30 mg/kg/mouse) was dissolved in a solution containing 0.5% Carboxymethylcellulose sodium salt (CMC; MW: 90,000 Da; Sigma Aldrich) and 1% Tween 80 and was administrated daily by oral gavage (100 μl/mouse). GED was administered at the beginning of second cycle.
Animals were observed daily for fluid intake, weight changes, and examined for signs of colitis including weight loss, diarrhoea, rectal bleeding and prolapse as well as signs of systemic inflammation such as piloerection, lethargy, and periorbital exudates.

C57BL/6 mice [2] = assay: DSS chronic colitis (Ex. 7): macroscopic colonic findings; type: in vivo
Experimental: Finally, seven days after the last DSS cycle administration, the animals of each group were sacrificed by cervical dislocation under deep CO2 anaesthesia and undergone to laparotomy. The colon were visualized and rapidly excised. The length of the whole colon-rectum and the weight of the distal 8 cm of colon-rectum were measured.
The macroscopic colonic lesions including dilation, thickness and stenosis were scored by an independent observer, unaware of the mice treatment. Tissue specimens from the colon were dissected and immediately frozen or fixed in fresh 4% formaldehyde (FA)/PBS solution for 3 h at room temperature followed by the standard procedure for paraffin embedding. Paraffin embedded tissues transversally sectioned at 3 μm were subject to Hematoxylin/Eosin staining, to assess the inflammatory degree, and Masson trichrome to better assess connective tissue and fibrosis. The stained sections were then blindly observed under an Olympus BX51 Light Microscope (Olympus, Optical Co. Ltd., Tokyo, Japan) by two pathologists which have performed the histological score evaluating: i. presence of ulcers (0=absent, 1=little ulcers, 2=big ulcers); ii. the inflammatory degree (0=absent 1=mild, 2=moderate and 3=severe); iii. depth of lesions (0=absent, 1=lesions extending in the submucosa, 2=lesions in the muscolarispropria and 3=lesions in the serosa); iv. degree of fibrosis (0=absent 1=mild, 2=moderate and 3=severe). The degree of intestinal inflammation was assessed according to the density and extent of chronic inflammatory infiltrate, loss of goblet cells, and bowel wall thickening. A total microscopic score will be obtained as sum of all scores (maximum score possible=[…]).
At no stage frank rectal bleeding or rectal prolapse were observed. The mice were sacrificed on day 15 and day 30, respectively, and the colon was subjected to macroscopic evaluation by measuring of colon weight (referred to the last 8 cm of the distal large bowel) and colon length and by observing the presence of adhesions, strictures, dilatation, thickness that was scored as 0 if absent; 1 if mild or moderate; and 2 if severe. The total macroscopic score was calculated as sum of all these score.

Collagen I-III = assay: DSS chronic colitis (Ex. 7): Western blot, Collagen I-III; type: in vivo, mice; settings: percentage of the mean of control group, normalized with GAPDH; DSS 284.4%±63.8%
Experimental: 0.5 cm of frozen colonic samples were cut and mechanically homogenized in RIPA Buffer containing 50 mMTrisHCl pH 7.6, 150 mMNaCl, 1.5 mM MgCl2, 5 mM EDTA, 1% Triton-X and 10% Glycerol, supplemented with 100 mM Sodium Fluoride (NaF), 2 mM Sodium Orthovanadate (Na3VO4), 10 mM Sodium Pyrophosphate (NaPPi), 1 mMphenylmethanesulphone (PMSF) and a classical protease-inhibitor cocktail containing 10 μg/mL Leupeptin and Aprotinin.
30 μg of protein for each sample were separated by PAGE and electroblotted. 100% pure Nitrocellulose membranes were incubated (according with a specific protocol for each antibody) with primary antibodies directed against TGF-β1, CTGF, α-SMA, Collagen-I and GAPDH (purchased from Abcam, Cambridge, UK; 1:1000 for 2 h at RT), and IL-13 (purchased from Antibodies online; 1:1000 for 2 h at RT) diluted in 5% non fat-milk in 0.1% TBS-t. […] Optical density of target bands was determined using a computer-assisted densitometer and the ImageJ public domain software (W. S., Rasband, ImageJ, U. S. National Institutes of Health, Bethesda, MD; http://rsb.info.nih.gov/ij/, 1997-2011). Tissue levels were expressed as units of Optical Density (OD) per quantity of total proteins, normalizing with internal control GAPDH and the results were expressed as percentage of control groups.

[3] = system: main markers of fibrosis (Collagen I-III, CTGF, SMAD 2/3, PDGF, α-SMA, and TGF-β1); assay: DSS intestinal fibrosis study: immunohistochemical analysis of colon; type: in vivo, mice
Experimental: For the immunohistochemical analysis, tissue specimens from the colon were fixed in fresh 4% paraformaldehyde (PFA)/PBS solution for 3 h at room temperature, dehydrated in a graded ethanol series, and embedded in low-temperature-fusion paraffin. 3-μm-thick sections were incubated in methanol for 40 min and then in 3% hydrogen peroxide for 5 min. Samples were incubated overnight with specific antibodies against collagen types I-III (Abcam), connective tissue growth factor (CTGF) (Abcam), Platelet Derived Growth factor (PDGF), SMAD2/3, the main markers of fibrosis. The samples were washed for 5 min with PBS and incubated with streptavidin-biotin-peroxidase conjugated secondary antibody (Dako LSAB Corporation, cod K0675, Dako-Cytomation, Milano). After a wash in PBS for 10 min the sections were subjected to incubation with 3,3-diaminobenzidine-tetrahydrochloride for 1-3 min.
The specificity of immune reaction was performed omitting the primary antibodies Finally the samples were stained with hematoxylin of Mayer and observed under the Olympus BX51 Light Microscope (Olympus, Optical Co. Ltd., Tokyo, Japan).

[4] = chronic DSS colitis, GED 30 mg/kg oral daily, mean ± SEM

COC(Cc1ccc(N)cc1)C(=O)O (racemic) [Compound 34, (±)-2-methoxy-3-(4′-aminophenyl) propionic acid]
Body weight (C57BL/6 mice [1]; [4]): 25.132 ± 0.458 ^ | Mortality (C57BL/6 mice [1]; chronic DSS colitis, GED 30 mg/kg oral gavage daily, DSS 2): 0 n. mice | mice with systemic manifestations (piloerection, periorbital exudates and/or lethargy) (C57BL/6 mice [1]; seventh day of DSS oral administration, DSS mice 40%): 30% | mice with moderate to severe diarrhea (C57BL/6 mice [1]; seventh day of DSS oral administration, DSS mice 70%): 50% | reduction respect to the profibrotic effect of DSS (colon ratio weight/size) (C57BL/6 mice [2]; Ex. 7, GED 30 mg/kg oral daily): 26% | ratio weight/size of the colon (C57BL/6 mice [2]; Ex. 7, GED 30 mg/kg oral daily, DSS 44.98±6.31, control 20.11±3.91): 38.13±7.82 | Adhesions (score 0-2) (C57BL/6 mice [2]; [4]): 0.12 ± 0.1^¥¥ | Colon length (C57BL/6 mice [2]; [4]): 7.092 ± 0.16**/ ^ | Colon weight/body weight ratio (C57BL/6 mice [2]; [4]): 0.27 ± 0.012**/^¥¥ | Dilation (score 0-2) (C57BL/6 mice [2]; [4]): 1.12 ± 0.185**/^¥¥ | Stenosis (score 0-2) (C57BL/6 mice [2]; [4]): 0.32 ± 0.114**/^¥ | Thickness (score 0-2) (C57BL/6 mice [2]; [4]): 0.48 ± 0.108**/^¥ | Total macroscopic score (C57BL/6 mice [2]; chronic DSS colitis, GED 30 mg/kg oral daily, mean ± SEM, DSS 3.112 ± 0.31): 2.02 ± 0.26**/^¥¥ | Colon weight (C57BL/6 mice [2]; distal 8 cm of colon-rectum, chronic DSS colitis, GED 30 mg/kg oral daily, mean ± SEM): 0.269 ± 0.007 ^ | Collagen I-III expression level (Western blot) (Collagen I-III): 90.75%±19.9% | main markers of fibrosis (Collagen I-III, CTGF, SMAD 2/3, PDGF, α-SMA, TGF-β1) by IHC ([3]; colon of DSS mice vs colitic mice receiving vehicle, FIG. 9A-9E): a reduction of the main markers of fibrosis | collagen staining (immunohistochemical analysis) ([3]; colon of DSS mice, FIG. 9A): decrease in the collagen staining
